Results: US20080280974A1, “Spiro compounds for treatment of inflammatory disorders” (priority 2007, published 2008)

Assays:
[1] = tested on: Balb/CJ mice, ovalbumin-sensitized and challenged; assay: Mouse model of asthma: methacholine-induced airway reactivity (Penh) in ovalbumin-sensitized mice; format: in vivo; conditions: po, 768 h, 50 mg/kg p.o., days 26-32, % inhibition of the PenH vs McH dose AUC compared with vehicle control, day 32, read-out: Reduction of Penh AUC at 50 mg/kg p.o.
Procedure: Protocol for Testing Compounds in a Mouse Model of Asthma
Male 5-6 week old Balb/CJ mice were obtained from Jackson Laboratories (Bar Harbor, Me.). All experimental animals were used in accordance to Institutional Animal Care and Use Committee of AtheroGenics, Inc. Mice were sensitized by administering an intraperitoneal injection of 20 μg of ovalbumin (Calbiochem, La Jolla, Calif.) adsorbed in 2 mg of alum (Imject Alum; Pierce, Rockford, Ill.) on day 0 and 14. A group of mice received saline and served as negative control animals. The mice were challenged by aerosol exposure to ovalbumin (1% [wt/vol]) for 25 minutes on 3 consecutive days (days 28, 29, and 30) in a plexiglas exposure chamber coupled to an Aeroneb nebulizer (Buxco Electronics, Wilmington, N.C.). Experimental compounds were dissolved in Glycofurol/PEG 300/Tween (35%/55%/10%) (Sigma-aldrich; Milwaukee, Wis.). Animals were dosed orally with either test compound or vehicle (6 ml/kg dosing volume) on days 26-32 of study. Compound or vehicle was administered 2 hour before the aerosol challenge on days 28, 29, and 30 and 1 hour before airway reactivity measurement on day 32.
Methacholine-induced airway reactivity was assessed on day 32. Methacholine was administered in increasing concentrations ([…], 1.5, 3, 6, 12, 25, and 50 mg/ml) to unrestrained mice. Increases in airway resistance to Methacholine were determined as enhanced pause, (Penh) values, during and after the exposure (6-minute total analysis time). Mice were then humanely euthanized with an overdose of ketamine/xylazine and plasma samples collected for determination of drug levels. The data is presented as the % inhibition of the PenH vs McH dose AUC compared with the vehicle control.
Data analysis was conducting using the software package, JMP (SAS Institute Inc; Cary, N.C.). The Dunnett's multiple comparison test was used to compare treatment group means to the vehicle control group. P values of less than 0.05 were considered statistically significant. The data (Table 1) are presented as the % inhibition of the PenH vs McH dose AUC compared with the vehicle control.

melting point [°C]	Structure (SMILES)	inhibition in vivo at 50 mg/kg [1] [%]
235 to 236	Cc1cc2c(cc1O)C(C)(C)CC1(CC(C)(C)c3cc(OCCCCO)c(C)cc3O1)O2 (racemic)	
143 to 144	C=CCOc1cc2c(cc1C)OC1(CC(C)(C)c3cc(O)c(C)cc3O1)CC2(C)C (racemic)	
	Cc1cc2c(cc1O)C(C)(C)C[C@]1(CC(C)(C)c3cc(OC(C)(C)C(=O)O)c(C)cc3O1)O2 (racemic) [Example 9, (±)-(R)-(6′-Hydroxy-4,4,4′,4′,7,7′-hexamethyl-2,2′-spirobichroman-6-yloxy)-dimethylacetic acid]	> 40
217 to 219	Cc1cc2c(cc1O)C(C)(C)CC1(CC(C)(C)c3cc(OCCCn4nc(CO)cc4C)c(C)cc3O1)O2 (racemic) [Example 17, (±)-6′-Hydroxy-6-[3-(3-hydroxymethyl-5-methyl-1H-pyrazol-1-yl)propoxy]-4,4,4′,4′,7,7′-hexamethyl-2,2′-spirobichroman]	20 to 40
	Cc1cc2c(cc1O)C(C)(C)CC1(CC(C)(C)c3cc(OCC(C)(C)O)c(C)cc3O1)O2 (racemic) [Example 19, (±)-6′-Hydroxy-6-(2-hydroxy-2-methylpropoxy)-4,4,4′,4′,7,7′-hexamethyl-2,2′-spirobichroman]	< 20
195 to 197	COc1cc2c(cc1C)OC1(CC2(C)C)CC(C)(C)c2cc(OCC(=O)O)c(C)cc2O1 (racemic) [Example 20, (±)-(6′-Methoxy-4,4,4′,4′,7,7′-hexamethyl-2,2′-spirobichroman-6-yloxy)-acetic acid]	< 20
60 to 65	Cc1cc2c(cc1O)C(C)(C)CC1(CC(C)(C)c3cc(OCC(=O)OCc4ccccc4)c(C)cc3O1)O2 (racemic) [Example 25, (±)-(6′-Hydroxy-4,4,4′,4′,7,7′-hexamethyl-2,2′-spirobichroman-6-yloxy)-acetic acid Benzyl Ester]	
88 to 93	Cc1cc2c(cc1O)C(C)(C)CC1(CC(C)(C)c3cc(OCC(=O)O[C@@H]4C[C@H](C)CC[C@H]4C(C)(C)c4ccccc4)c(C)cc3O1)O2 (mixture of isomers) [Example 26, (±)-(6′-Hydroxy-4,4,4′,4′,7,7′-hexamethyl-2,2′-spirobichroman-6-yloxy)-acetic acid 5(R)-Methyl-2(S)-(1-methyl-1-phenylethyl)-1(R)-cyclohexyl Ester]	
	Cc1cc2c(cc1O)C(C)(C)CC1(CC(C)(C)c3cc(O)c(C)cc3O1)O2 (single isomer, unassigned) [Example 28]	20 to 40
	Cc1cc2c(cc1O)C(C)(C)CC1(CC(C)(C)c3cc(OC(C)(C)C(=O)O)c(C)cc3O1)O2 (stereo in doubt) [Example 10, (−)-(S)-(6′-Hydroxy-4,4,4′,4′,7,7′-hexamethyl-2,2′-spirobichroman-6-yloxy)-dimethylacetic acid]	< 20
98 to 100	C=CCOc1cc2c(cc1C)OC1(CC2(C)C)CC(C)(C)c2cc(OCC=C)c(C)cc2O1 [Example 16, (±)-6,6′-Bisallyloxy-4,4,4′,4′,7,7′-hexamethyl-2,2′-spirobichroman]	

Structure (SMILES)	melting point [°C]	inhibition in vivo at 50 mg/kg [1] [%]
Cc1cc2c(cc1O)C(C)(C)CC1(CC(C)(C)c3cc(OC(C)(C)CO)c(C)cc3O1)O2 (racemic) [Example 11, (±)-6-(2-Hydroxy-1,1-dimethyl-ethoxy)-6′-hydroxy-4,4,4′,4′,7,7′-hexamethyl-2,2′-spirobichroman]	188 to 189	< 20
Cc1cc2c(cc1O)C(C)(C)CC1(CC(C)(C)c3cc(OCC(N)=O)c(C)cc3O1)O2 (racemic) [Example 14, (±)-(6′-Hydroxy-4,4,4′,4′,7,7′-hexamethyl-2,2′-spirobichroman-6-yloxy)-acetamide]	220 to 221	< 20
C=CCc1c(O)c(C)cc2c1C(C)(C)CC1(CC(C)(C)c3cc(O)c(C)cc3O1)O2 (racemic) [Example 22, (±)-6,6′-Dihydroxy-5-allyl-4,4,4′,4′,7,7′-hexamethyl-2,2′-spirobichroman]	102 to 104	< 20
